Converted amounts (≈) assume the structure as drawn.
Columns and labels:
[1] = Apparent permeability across apical to basolateral side in human Caco-2 cells at 10 uM incubated for 2 hrs by HPLC-MS analysis; format: ADME, cell-based
[2] = Inhibition of porcine cytosolic phospholipase A2 alpha using SAPC and 2-dioleoyl-sn-glycerol as substrate incubated for 60 mins by HPLC-UV analysis; design: species or system Sus scrofa
[3] = Metabolic stability in rat liver S9 fraction assessed as parent compound remaining at 5 uM incubated for 30 mins in presence of UDPGA by HPLC-MS analysis; format: ADME, subcellular; details: read-out: Stability
[4] = Partition coefficient,logP of compound by reversed-phase HPLC analysis; format: physicochemical; details: octanol/water
[5] = Metabolic stability in rat liver S9 fraction assessed as parent compound remaining at 20 uM incubated for 30 mins in presence of NADPH by HPLC-MS analysis; format: ADME, subcellular; details: read-out: Stability
[6] = Permeability across apical to basolateral side in human Caco-2 cells at 10 uM incubated for 2 hrs by HPLC-MS analysis; format: ADME, cell-based; details: caco-2, 2 h
[7] = Drug concentration in C57Bl/6 mouse plasma at 30 mg/kg,po observed after 2 hrs by HPLC-MS analysis; format: ADME, organism-based
[8] = Kinetic solubility of compound in PBS at pH 7.4 incubated for 24 hrs by HPLC-UV analysis; format: physicochemical; details: read-out: Kinetic_solubility
[9] = Thermodynamic solubility of the compound in PBS at pH 7.4 incubated for 20 hrs by HPLC-UV analysis; format: physicochemical; details: read-out: Therm_solubility
Sus scrofa = organism: Sus scrofa; assay: Inhibition of porcine cytosolic phospholipase A2 alpha using SAPC and 2-dioleoyl-sn-glycerol as substrate at 10 uM incubated for 60 mins by HPLC-UV analysis

For `COc1ccc2c(c1)c(CC(=O)O)c(C)n2C(=O)c1ccc(Cl)cc1` [INDOMETHACIN], the Papp A→B at 2 h, 10 µM [1] was 18 ×10⁻⁶ cm/s.
Work on `CCCCCCCCCCOc1ccc(OCC(=O)COc2ccc(C(=O)O)cc2)cc1` yielded an IC50 [2] of 6.5 nM.
For `CC(C)C(=O)c1cn(CC(=O)COc2ccc(Oc3ccc(C(F)(F)F)cc3)cc2)cc1CCC(=O)O`, the remaining at 0.5 h, 5 µM [3] was over 90%, the logP [4] was 4 and the IC50 [2] was 82 nM. For the same compound, the remaining at 0.5 h, 20 µM [5] was under 5%.
With `CC(C)C(=O)c1cn(CC(=O)COc2ccc(Oc3ccccc3)cc2)c2ccc(C(=O)O)cc12` the IC50 [2] was 12 nM.
In the case of `CCCCCCCCc1ccc(OCC(O)Cn2cc(CCC(=O)O)c(C(=O)C(C)C)c2)cc1` (stereo not drawn), the permeability [6] is reported as “Permeable” and the concentration at 2 h [7] is reported as 50 ng/mL.
Compound `CCCCCCCCc1ccc(OCC(=O)Cn2cc(-c3nc(C)no3)c3cc(C(=O)O)ccc32)cc1` has a remaining at 0.5 h, 5 µM [3] of under 5%, an IC50 [2] of 15 nM and a remaining at 0.5 h, 20 µM [5] of 30%.
Work on `CCCCCCCCc1ccc(OCC(=O)Cn2cc(CC(=O)O)c(C(=O)C(C)C)c2)cc1` yielded a remaining at 0.5 h, 5 µM [3] of over 90%, an IC50 [2] of 40 nM and a remaining at 0.5 h, 20 µM [5] of 25%.
For `Cc1noc(-c2cn(CC(=O)C(C)Oc3ccc(Oc4ccc(Cl)cc4)cc3)cc2CCC(=O)O)n1` (stereo not drawn), the remaining at 0.5 h, 5 µM [3] was over 90%, the logP [4] was 3.9 and the IC50 [2] was 38 nM. It also gave a remaining at 0.5 h, 20 µM [5] of 21%.
Work on `CCCCCCCCc1ccc(OC(C)C(=O)Cn2cc(CCC(=O)O)c(-c3nc(C)no3)c2)cc1` (stereo not drawn) yielded a remaining at 0.5 h, 5 µM [3] of over 90%, a solubility kinetic at 24 h [8] of 10 µg/mL (≈ 20.2 µM) and a logP [4] of 6.5. For the same compound, the IC50 [2] was 13 nM and the remaining at 0.5 h, 20 µM [5] was 62%.
`CCCCCCCCc1ccc(OCC(=O)Cn2cc(C(=O)C(C)C)c3cc(C(=O)O)ccc32)cc1` showed an IC50 [2] of 10 nM.
With `CCCCCCCCc1ccc(OCC(=O)Cn2cc(C(=O)C(C)C)cc2CCCC(=O)O)cc1` the remaining at 0.5 h, 5 µM [3] was over 90%, the IC50 [2] was 650 nM and the remaining at 0.5 h, 20 µM [5] was 59%.
`CCCCCCCCc1ccc(OCC(=O)Cn2cc(CCC(=O)O)c(C(=O)C(C)C)c2)cc1` showed a remaining at 0.5 h, 5 µM [3] of over 90%, a solubility kinetic at 24 h [8] of 174 µg/mL (≈ 371 µM) and a logP [4] of 6.3. For the same compound, the IC50 [2] was 53 nM and the remaining at 0.5 h, 20 µM [5] was 54%.
With `CC(C)C(=O)c1cn(CC(=O)COc2ccc(-c3ccc(C(F)(F)F)cc3)cc2)cc1CCC(=O)O` the remaining at 0.5 h, 5 µM [3] was over 90%, the logP [4] was 4 and the IC50 [2] was 170 nM. It also gave a remaining at 0.5 h, 20 µM [5] of 34%.
With `CCCCCCCCc1ccc(OCC(=O)Cn2cc(C(=O)C(C)C)cc2CCC(=O)O)cc1` the remaining at 0.5 h, 5 µM [3] was over 90%, the permeability [6] was “Impermeable” and the solubility thermodynamic at 20 h [9] was 394 µg/mL (≈ 839 µM). It also gave a concentration at 2 h [7] of 220 ng/mL, a solubility kinetic at 24 h [8] of at least 250 µg/mL and an IC50 [2] of 460 nM. For the same compound, the remaining at 0.5 h, 20 µM [5] was 60%.
`CCCCCCCCc1ccc(OCC(=O)C(C)n2cc(CCC(=O)O)c(-c3nc(C)no3)c2)cc1` (stereo not drawn) gave a remaining at 0.5 h, 5 µM [3] of over 90%, a logP [4] of 6.1 and an IC50 [2] of 1 nM. For the same compound, the remaining at 0.5 h, 20 µM [5] was 43%.
Compound `CCCCCCCCc1ccc(OCC(=O)Cn2cc(CCC(=O)O)c(-c3nc(C)no3)c2)cc1` has a remaining at 0.5 h, 5 µM [3] of over 90%, a logP [4] of 5.9 and an IC50 [2] of 1 nM. The remaining at 0.5 h, 20 µM [5] was 34%.
With `Cc1noc(-c2cn(CC(=O)C(C)Oc3ccc(Oc4ccc(C(F)(F)F)cc4)cc3)cc2CCC(=O)O)n1` (stereo not drawn) the remaining at 0.5 h, 5 µM [3] was over 90%, the permeability [6] was “Permeable” and the logP [4] was 4.1. For the same compound, the IC50 [2] was 16 nM and the remaining at 0.5 h, 20 µM [5] was 30%.
`CC(C)C(=O)c1cn(CC(=O)COc2ccc(C34CC5CC(CC(C5)C3)C4)cc2)cc1CCC(=O)O` showed a remaining at 0.5 h, 5 µM [3] of over 90%, a logP [4] of 5.6 and an IC50 [2] of 51 nM. It also gave a remaining at 0.5 h, 20 µM [5] of 20%.
`CCCCCCCCc1ccc(OCC(=O)Cn2c(C)c(CCC(=O)O)c(C(=O)C(C)C)c2C)cc1` gave a remaining at 0.5 h, 5 µM [3] of over 90%, an inhibition (Sus scrofa) of 45% and an IC50 [2] of over 10000 nM. The remaining at 0.5 h, 20 µM [5] was 39%.
With `CC(C)C(=O)c1cn(CC(=O)COc2ccc3c(ccn3-c3ccc(F)cc3)c2)cc1CCC(=O)O` the remaining at 0.5 h, 5 µM [3] was over 90%, the logP [4] was 3.3 and the IC50 [2] was 310 nM. For the same compound, the remaining at 0.5 h, 20 µM [5] was under 5%.
Compound `Cc1noc(-c2cn(CC(=O)C(C)Oc3ccc(Oc4ccc(F)cc4)cc3)cc2CCC(=O)O)n1` (stereo not drawn) has a remaining at 0.5 h, 5 µM [3] of over 90%, a logP [4] of 3.3 and an IC50 [2] of 32 nM. It also gave a remaining at 0.5 h, 20 µM [5] of 15%.
With `CCCCCCCCc1ccc(OCC(=O)Cn2cc(CCCC(=O)O)c(C(=O)C(C)C)c2)cc1` the remaining at 0.5 h, 5 µM [3] was over 90%, the IC50 [2] was 450 nM and the remaining at 0.5 h, 20 µM [5] was 25%.
For `COc1cccc2c1C(=O)c1c(O)c3c(c(O)c1C2=O)C[C@@](O)(C(C)=O)C[C@@H]3O[C@H]1C[C@H](N)[C@H](O)[C@H](C)O1` [DAUNORUBICIN], the remaining at 0.5 h, 5 µM [3] was 32% and the remaining at 0.5 h, 20 µM [5] was 28%.
